Reference: patent publication US9878070B2, “Malleable implants including an oxysterol and methods of use” (Warsaw Orthopedic, Inc., priority 2015, dated 2018)
Entries after “also recorded” stand apart in the source; their conditions may differ.

Columns and labels:
[1] = tested on: multipotent mesenchymal cells such as M2-10B4 (M2) marrow stromal cells and C3H10T1/2 embryonic fibroblasts; conditions: cited from earlier work
[2] = tested on: rat two-level spine model; assay: Posterolateral spinal fusion in a rat two-level spine model (radiographs, manual palpation); format: in vivo; conditions: collagen/ceramic matrix wetted with sterile water, bilateral in posterolateral space, 4-week and 8-week timepoints
Procedure: FIG. 6 illustrates uses of a formulation of malleable implants having 20 mg of Oxy133 on each side of the implant, in accordance with the malleable implants described herein. […] A dry composition of a matrix containing Oxy133, collagen and ceramic as described herein was prepared and wetted with sterile water to be implanted in rat spines as shown in FIG. 6. The wetted matrix was cut in half with a razor blade to yield two halves. The two implants were molded into cylindrical shapes prior to insertion and were positioned bilaterally in the posterolateral space of each test subject. Each implant contained 20 mg Oxy133. Radiographs were taken roughly 10 minutes after the procedure, 4 weeks after the procedure, and 8 weeks after the procedure. […] Fusion was tested at 8-week sacrifice by manual palpation. […] A dry composition of a matrix containing Oxy133, collagen and ceramic as described herein was prepared and wetted with sterile water to be implanted in rat spines as shown in FIG. 6. The wetted matrix was cut in half with a razor blade to yield two halves. The two implants were molded into cylindrical shapes prior to insertion and were positioned bilaterally in the posterolateral space of each test subject. Each implant contained 125 mg Oxy133. Radiographs were taken roughly 10 minutes after the procedure, 4 weeks after the procedure, and 8 weeks after the procedure. […]

| Structure (SMILES) | osteogenic differentiation [1] | bridging bone across the transverse processes of L3-L5 / bone growth (radiographs) ([2]; 20 mg Oxy133 per implant) | bridging bone across the transverse processes of L3-L5 / bone growth (radiographs) ([2]; 125 mg Oxy133 per implant) |
| --- | --- | --- | --- |
| CC(C)CCC[C@](C)(O)[C@H]1CC[C@H]2[C@@H]3CC=C4C[C@@H](O)CC[C@]4(C)[C@H]3CC[C@@]21C [20(S)-hydroxycholesterol] | induce osteogenic differentiation |  |  |
| CC(C)CC[C@@H](O)[C@@H](C)[C@H]1CC[C@H]2[C@@H]3CC=C4C[C@@H](O)CC[C@]4(C)[C@H]3CC[C@]12C [22(R)-hydroxycholesterol] | induce osteogenic differentiation |  |  |
| CC(C)CC[C@H](O)[C@@H](C)[C@H]1CC[C@H]2[C@@H]3CC=C4C[C@@H](O)CC[C@]4(C)[C@H]3CC[C@]12C [22(S)-hydroxycholesterol] | induce osteogenic differentiation |  |  |
| CCCCCC[C@](C)(O)[C@H]1CC[C@H]2[C@@H]3C[C@H](O)[C@H]4C[C@@H](O)CC[C@]4(C)[C@H]3CC[C@@]21C [Oxy133, (3S,5S,6S,8R,9S,10R,13S,14S,17S) 17-((S)-2-hydroxyoctan-2-yl)-10,13-dimethylhexadecahydro-1H-cyclopenta[a]phenanthrene-3,6-diol] |  | promoted bridging bone; also recorded: Bone growth in rat test subjects can be seen | promoted bridging bone; also recorded: Bone growth in rat test subjects can be seen |
